Test results reported in patent US7678773B2, “Salts of avermectins substituted in the 4″-position and having pesticidal properties” (Merial Limited, priority 2001, dated 2010).
Read-outs that look alike come from different tables or passages of the source.

What was measured:
Format in all cases: in vivo
Spodoptera littoralis = experiment: Example B1: Action against Spodoptera littoralis (sprayed soybean plants); details: 72 h, read-out: reduction in the pest population (% activity)
Description: Young soybean plants are sprayed with an aqueous emulsion spray mixture comprising 12.5 ppm of test compound and, after the spray-coating has dried, the plants are populated with 10 caterpillars of Spodoptera littoralis in the first stage and then placed in a plastics container. 3 days later, the percentage reduction in population and the percentage reduction in feeding damage (% activity) are determined by comparing the number of dead caterpillars and the feeding damage on the treated plants with that on untreated plants.

Tetranychus urticae = experiment: Example B7: Action against Tetranychus urticae (sprayed bean plants); details: 144 h, read-out: reduction in the pest population (% activity)
Description: Young bean plants are populated with a mixed population of Tetranychus urticae and sprayed one day later with an aqueous emulsion spray mixture comprising 12.5 ppm of test compound. The plants are incubated for 6 days at 25° C. and subsequently evaluated. The percentage reduction in population (% activity) is determined by comparing the number of dead eggs, larvae and adults on the treated plants with that on untreated plants.

Plutella xylostella = experiment: Example B4: Action against Plutella xylostella caterpillars (sprayed cabbage plants); details: 72 h, read-out: reduction in the pest population (% activity)
Description: Young cabbage plants are sprayed with an aqueous emulsion spray mixture comprising 12.5 ppm of test compound. After the spray-coating has dried, the cabbage plants are populated with 10 caterpillars of Plutella xylostella in the first stage and placed in a plastics container. Evaluation is made 3 days later. The percentage reduction in population and the percentage reduction in feeding damage (% activity) are determined by comparing the number of dead caterpillars and the feeding damage on the treated plants with that on the untreated plants.

Diabrotica balteata = experiment: Example B6: Action against Diabrotica balteata (sprayed maize seedlings); details: 144 h, read-out: reduction in the pest population (% activity)
Description: Maize seedlings are sprayed with an aqueous emulsion spray mixture comprising 12.5 ppm of the test compound and, after the spray-coating has dried, the maize seedlings are populated with 10 Diabrotica balteata larvae in the second stage and then placed in a plastics container. 6 days later, the percentage reduction in population (% activity) is determined by comparing the number of dead larvae on the treated plants with that on untreated plants.

[1] = 12.5 ppm spray on young soybean plants, first-stage caterpillars, evaluated 3 days later vs untreated plants
[2] = 12.5 ppm spray on young bean plants, mixed population, 6 days at 25° C.
[3] = 12.5 ppm spray on young cabbage plants, first-stage caterpillars, evaluated 3 days later
[4] = 12.5 ppm spray on maize seedlings, second-stage larvae, evaluated 6 days later

Measured: inhibition at 12.5 ppm

O=C(O)c1ccc(O)cc1O [B.82, 2,4-dihydroxy-benzoic acid]
> 80%: Spodoptera littoralis; [1] | Tetranychus urticae; [2] | Plutella xylostella; [3] | Diabrotica balteata; [4]

O=C(O)c1ccccc1-c1ccccc1 [B.11, 2-phenyl-benzoic acid]
> 80%: Spodoptera littoralis; [1] | Tetranychus urticae; [2] | Plutella xylostella; [3] | Diabrotica balteata; [4]

O=C(O)c1cccc(F)c1 [B.41, 3-fluoro-benzoic acid]
> 80%: Spodoptera littoralis; [1] | Tetranychus urticae; [2] | Plutella xylostella; [3] | Diabrotica balteata; [4]

CC(C)(C)c1ccc(C(=O)O)cc1 [B.71, 4-tert-butyl-benzoic acid]
> 80%: Spodoptera littoralis; [1] | Tetranychus urticae; [2] | Plutella xylostella; [3] | Diabrotica balteata; [4]

Cc1ccc(C(=O)O)cc1 [B.32, p-toluic acid]
> 80%: Spodoptera littoralis; [1] | Tetranychus urticae; [2] | Plutella xylostella; [3] | Diabrotica balteata; [4]

Cc1ccc(C)c(C(=O)O)c1 [B.44, 2,5-dimethyl-benzoic acid]
> 80%: Spodoptera littoralis; [1] | Tetranychus urticae; [2] | Plutella xylostella; [3] | Diabrotica balteata; [4]

O=C(O)CCCOc1ccccc1 [B.70, 4-phenoxy-butyric acid]
> 80%: Spodoptera littoralis | Tetranychus urticae | Plutella xylostella | Diabrotica balteata
